The target of the experiment is T1, HDM2 (Homo sapiens, UniProt Q00987).
T1 construct: Thioredoxin (N); made in house; host or cells: E. coli strain BL21(DE3)Rosetta
As to the kind of experiment: HDM2 FRET assay (inhibition of binding of FITC labeled p53-pocket peptide to HDM2). The note with it: read-out: FRET IC50. The method in brief: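 Compounds were tested in 10-point serial dilution against 0.5 nM recombinant HDM2 binding 3 nM fluorescein-labeled p53-pocket peptide. Detection used 0.25 nM terbium cryptate anti-6xHis antibody in PBS buffer containing 0.01% BSA and 0.01% Tween-20.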

[1] abbreviates: 0.5 nM HDM2 (residues 17 to 125), 3nM peptide, two hour incubation at room temperature.

Read-outs that look alike come from different tables or passages of the source.

We go through 26 molecules from EP2951180B1, “2,6,7,8 SUBSTITUTED PURINES AS HDM2 INHIBITORS” (Merck Sharp & Dohme Corp., priority 2013, dated 2014).

T1 sequence (Q00987 17-125): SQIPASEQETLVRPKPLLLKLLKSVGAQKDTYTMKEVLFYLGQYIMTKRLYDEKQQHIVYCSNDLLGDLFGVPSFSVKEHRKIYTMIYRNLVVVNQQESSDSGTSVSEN

Turning to `C[C@@H]1CNCCN1c1nc2nc(-c3noc(=O)[nH]3)nc(N[C@H](C)C3CCC3)c2n1C[C@H]1CC[C@H](C)CC1` [Example 17.19, 3-(6-{[(1R)-1-cyclobutylethyl]amino}-7-[(trans-4-methylcyclohexyl)methyl]-8-[(2R)-2-methylpiperazin-1-yl]-7H-purin-2-yl)-1,2,4-oxadiazol-5(4H)-one], the IC50 (Table 17.2) came to 15.5 nM.
Turning to `CC[C@@H]1COCCN1c1nc2nc(-c3noc(=O)[nH]3)nc(-c3cccc(Cl)c3)c2n1C(C)[C@H]1CC[C@H](C)CC1` (single isomer, unassigned) [Example 18.51], for the setting “Table 18”, the IC50 turned out to be 10.5 nM.
For the molecule `C=CCN(c1nc(C(=O)O)nc2nc(NC(C)c3ccccn3)n(Cc3ccc(C(F)(F)F)cc3)c12)[C@H](C)C1CCC1` (stereo partly drawn) [Example 10.31, 6-(allyl((R)-1-cyclobutylethyl)amino)-8-((1-(pyridin-2-yl)ethyl)amino)-7-(4-(trifluoromethyl)benzyl)-7H-purine-2-carboxylic acid], the concentration for half-maximal inhibition (IC50) (Table 10) is 54.9 nM.
As for `C[C@@H](Nc1nc(C(=O)O)nc2nc(N3CCOC[C@H]3c3ccccc3)n(C[C@H]3CC[C@H](C)CC3)c12)C1CCC1` [Example 11.10, 6-{[(1R)-1-cyclobutylethyl]amino}-7-[(trans-4-methylcyclohexyl)methyl]-8-[(3R)-3-phenylmorpholin-4-yl]-7H-purine-2-carboxylic acid], the IC50 (Table 11) turned out to be 0.202 nM.
On to `C[C@@H](Nc1nc(C(=O)O)nc2nc(N(C)C3CCCCC3)n(Cc3ccc(C(F)(F)F)cc3)c12)C1CCC1` [Example 9.15, 6-{[(1R)-1-cyclobutylethyl]amino}-8-[cyclohexyl(methyl)amino]-7-[4-(trifluoromethyl)benzyl]-7H-purine-2-carboxylic acid], for which the IC50 (Table 9) came to 7.4 nM.
On to `CC(C)c1ccnc(-c2nc3nc(C(=O)O)nc(N[C@H](C)C4CCC4)c3n2CC2CCC(F)(F)CC2)c1` [Example 18.3, (R)-6-((1-cyclobutylethyl)amino)-7-((4,4-difluorocyclohexyl)methyl)-8-(4-isopropylpyridin-2-yl)-7H-purine-2-carboxylic acid], for which the IC50 (Table 18) was determined as 57.4 nM.
`C[C@@H](Nc1nc(C(=O)O)nc2nc(N3CCCCC3c3cccc(F)c3)n(Cc3ccc(C(F)(F)F)cc3)c12)C1CCC1` (stereo partly drawn) [Example 9.116, 6-{[(1R)-1-cyclobutylethyl]amino}-8-[2-(3-fluorophenyl)piperidin-1-yl]-7-[4-(trifluoromethyl)benzyl]-7H-purine-2-carboxylic acid]: for the setting “Table 9”, the half-maximal inhibitory concentration (IC50) turned out to be 14 nM.
As to `C[C@@H](Nc1nc(C(=O)O)nc2nc(N(C)C(=O)C3CCCCC3)n(Cc3ccc(C(F)(F)F)cc3)c12)C1CCC1` [Example 10.4, (R)-6-((1-cyclobutylethyl)amino)-8-(N-methylcyclohexanecarboxamido)-7-(4-(trifluoromethyl)benzyl)-7H-purine-2-carboxylic acid], the IC50 (Table 10) came to 14.1 nM.
Consider `CC(C)c1cc(-c2nc3nc(-c4noc(=O)[nH]4)nc(N[C@H](C)C4CCC4)c3n2C[C@H]2CC[C@H](C)CC2)ncc1F` [Example 15.10, 3-(6-(((R)-1-cyclobutylethyl)amino)-8-(5-fluoro-4-isopropylpyridin-2-yl)-7-((trans-4-methylcyclohexyl)methyl)-7H-purin-2-yl)-1,2,4-oxadiazol-5(4H)-one], for which the IC50 under setting [1] is 11.8 nM.
In the case of `CC(C)c1ccnc(-c2nc3nc(C(=O)O)nc(N[C@H](C)C4CCC4)c3n2C[C@H]2CC[C@H](C)CC2)c1F` [Example 15.6, 6-(((R)-1-Cyclobutylethyl)amino)-8-(3-fluoro-4-isopropylpyridin-2-yl)-7-((trans-4-methylcyclohexyl)methyl)-7H-purine-2-carboxylic acid], the IC50 under setting [1] worked out at 6.02 nM.
For the molecule `C[C@@H](Nc1nc(-c2noc(=O)[nH]2)nc2nc(N(C)Cc3ccon3)n(C[C@H]3CC[C@H](C)CC3)c12)C1CCC1` [Example 11.64, 3-(6-{[(1R)-1-cyclobutylethyl]amino}-8-[(isoxazol-3-ylmethyl)(methyl)amino]-7-[(trans-4-methylcyclohexyl)methyl]-7H-purin-2-yl)-1,2,4-oxadiazol-5(4H)-one], the half-maximal inhibitory concentration (IC50) (Table 11) is 5.77 nM.
As for `C[C@@H](Nc1nc(-c2noc(=O)[nH]2)nc2nc(C(C)(O)c3ccccn3)n(C[C@H]3CC[C@H](C)CC3)c12)C1CCC1` (single isomer, unassigned) [Example 22.7], the IC50 (Table 22) is 19.9 nM.
Take `C[C@@H](Nc1nc(C(=O)O)nc2nc(N3CCCCC3c3cccc(F)c3)n(C[C@H]3CC[C@H](C)CC3)c12)C1CCC1` (stereo partly drawn) [Example 11.16, 6-{[(1R)-1-cyclobutylethyl]amino}-8-[2-(3-fluorophenyl)piperidin-1-yl]-7-[(trans-4-methylcyclohexyl)methyl]-7H-purine-2-carboxylic acid]: under “Table 11”, the IC50 turned out to be 2.84 nM.
As to `CN(Cc1ccccc1)c1nc2nc(-c3noc(=O)[nH]3)nc(-c3cccc(Cl)c3)c2n1C[C@H]1CC[C@H](C)CC1` [Example 16.56, 3-{8-[benzyl(methyl)amino]-6-(3-chlorophenyl)-7-[(trans-4-methylcyclohexyl)methyl]-7H-purin-2-yl}-1,2,4-oxadiazol-5(4H)-one], under setting [1], the IC50 stood at 42.9 nM.
Consider `C[C@@H](Nc1nc(-c2noc(=O)[nH]2)nc2nc(N3CCCC3C3CCCCC3)n(Cc3ccc(C(F)(F)F)cc3)c12)C1CCC1` (stereo partly drawn) [Example 9.103, 3-(6-{[(1R)-1-cyclobutylethyl]amino}-8-(2-cyclohexylpyrrolidin-1-yl)-7-[4-(trifluoromethyl)benzyl]-7H-purin-2-yl)-1,2,4-oxadiazol-5(4H)-one], for which the IC50 (Table 9) was 31.9 nM.
Take `C[C@@H](Nc1nc(-c2noc(=O)[nH]2)nc2nc(N3CCOC[C@H]3c3ccccc3)n(Cc3ccc(Cl)c(F)c3)c12)C1CCC1` [Example 9.4, 3-{7-(4-chloro-3-fluorobenzyl)-6-{[(1R)-1-cyclobutylethyl]amino}-8-[(3R)-3-phenylmorpholin-4-yl]-7H-purin-2-yl}-1,2,4-oxadiazol-5(4H)-one]: for the setting “Table 9”, the IC50 was determined as 0.848 nM.
On to `C[C@@H](Nc1nc(-c2noc(=O)[nH]2)nc2nc(N3CCOCC3(C)C)n(C[C@H]3CC[C@H](C)CC3)c12)C1CCC1` [Example 11.98, 3-(6-{[(1R)-1-cyclobutylethyl]amino}-8-(3,3-dimethylmorpholin-4-yl)-7-[(trans-4-methylcyclohexyl)methyl]-7H-purin-2-yl)-1,2,4-oxadiazol-5(4H)-one], for which, where the note is “Table 11”, the IC50 worked out at 2.52 nM.
`CC1CN(c2nc(-c3noc(=O)[nH]3)nc3nc(N4CCOC[C@H]4c4ccccc4)n(C[C@H]4CC[C@H](C)CC4)c23)CCO1` (stereo partly drawn) [Example 26.3, 3-{7-[(trans-4-methylcyclohexyl)methyl]-6-(2-methylmorpholin-4-yl)-8-[(3R)-3-phenylmorpholin-4-yl]-7H-purin-2-yl}-1,2,4-oxadiazol-5(4H)-one]: the IC50 (Table 26) was determined as 14.5 nM.
`Cc1cccc(-c2nc3nc(C(=O)O)nc(NCC4CC4)c3n2Cc2ccc(C(F)(F)F)cc2)c1` [Example 6.36, 6-[(cyclopropylmethyl)amino]-8-(3-methylphenyl)-7-[4-(trifluoromethyl)benzyl]-7H-purine-2-carboxylic acid]: the IC50 (Table 6) is 670 nM.
As to `C[C@@H](Nc1nc(-c2nc(=O)o[nH]2)nc2nc(N3CCCC[C@@H]3C)n(C[C@H]3CC[C@H](C)CC3)c12)C1CCC1` (single isomer, unassigned) [Example 11.59], the IC50 (Table 11) is 13.5 nM.
As to `CCCC1CCCN1c1nc(C(=O)O)nc2nc(-c3cccc(C)c3)n(Cc3ccc(C(F)(F)F)cc3)c12` (centres unmarked) [Example 6.86, 8-(3-methylphenyl)-6-(2-propylpyrrolidin-1-yl)-7-[4-(trifluoromethyl)benzyl]-7H-purine-2-carboxylic acid], the IC50 (Table 6) was found to be 754 nM.
For the molecule `C[C@@H](Nc1nc(-c2noc(=O)[nH]2)nc2nc(NCc3c[nH]nc3-c3ccccc3)n(C[C@H]3CC[C@H](C)CC3)c12)C1CCC1` [Example 11.112, 3-(6-{[(1R)-1-cyclobutylethyl]amino}-7-[(trans-4-methylcyclohexyl)methyl]-8-{[(3-phenyl-1H-pyrazol-4-yl)methyl]amino}-7H-purin-2-yl)-1,2,4-oxadiazol-5(2H)-one], the IC50 (Table 11) was 215 nM.
On to `C[C@@H](Nc1nc(-c2noc(=O)[nH]2)nc2nc(C3(c4ccccc4F)CC3)n(C[C@H]3CC[C@H](C)CC3)c12)C1CCC1` [Example 22.5, 3-(6-{[(1R)-1-cyclobutylethyl]amino}-8-[1-(2-fluorophenyl)cyclopropyl]-7-[(trans-4-methylcyclohexyl)methyl]-7H-purin-2-yl)-1,2,4-oxadiazol-5(4H)-one], for which the IC50 (Table 22) was found to be 3.57 nM.
Regarding `CCCN(C)c1nc2nc(-c3noc(=O)[nH]3)nc(N[C@H](C)C3CCC3)c2n1C[C@H]1CC[C@H](C)CC1` [Example 11.44, 3-(6-{[(1R)-1-cyclobutylethyl]amino}-7-[(trans-4-methylcyclohexyl)methyl]-8-[methyl(propyl)amino]-7H-purin-2-yl)-1,2,4-oxadiazol-5(2H)-one], for the setting “Table 11”, the IC50 worked out at 9.97 nM.
As for `Cc1cccc(-c2nc3nc(-c4nnn[nH]4)nc(N[C@H](C)C4CC4)c3n2Cc2ccc(C(F)(F)F)cc2)c1` [Example 12.26, N-[(1R)-1-cyclopropylethyl]-8-(3-methylphenyl)-2-(1H-tetrazol-5-yl)-7-[4-(trifluoromethyl)benzyl]-7H-purin-6-amine], the IC50 under setting [1] was found to be 53 nM.
Regarding `C[C@@H](Nc1nc(C(=O)O)nc2nc(N3CCCCC3c3cccnc3)n(Cc3ccc(C(F)(F)F)cc3)c12)C1CCC1` (stereo partly drawn) [Example 9.114, 6-{[(1R)-1-cyclobutylethyl]amino}-8-(2-pyridin-3-ylpiperidin-1-yl)-7-[4-(trifluoromethyl)benzyl]-7H-purine-2-carboxylic acid], for the setting “Table 9”, the concentration for half-maximal inhibition (IC50) was determined as 110 nM.

What is called IC50 is the concentration that gives 50% inhibition.
